Test results published in paper PMC5007443, “TNIK inhibition abrogates colorectal cancer stemness” (Nature Communications, 2016).
pIC50: −log10 of the molar value. Where “and” joins values, the source holds several entries; their conditions need not be identical. Identical values can stand only once.

What was measured:
IRAK4 = IRAK4 (Homo sapiens, UniProt Q9NWZ3); assay: Kinase selectivity profiling, Interleukin 1 receptor-associated kinase 4; format: biochemical; conditions: read-out: Percentage inhibition of IRAK4
IRAK4, sequence (Q9NWZ3 whole entry): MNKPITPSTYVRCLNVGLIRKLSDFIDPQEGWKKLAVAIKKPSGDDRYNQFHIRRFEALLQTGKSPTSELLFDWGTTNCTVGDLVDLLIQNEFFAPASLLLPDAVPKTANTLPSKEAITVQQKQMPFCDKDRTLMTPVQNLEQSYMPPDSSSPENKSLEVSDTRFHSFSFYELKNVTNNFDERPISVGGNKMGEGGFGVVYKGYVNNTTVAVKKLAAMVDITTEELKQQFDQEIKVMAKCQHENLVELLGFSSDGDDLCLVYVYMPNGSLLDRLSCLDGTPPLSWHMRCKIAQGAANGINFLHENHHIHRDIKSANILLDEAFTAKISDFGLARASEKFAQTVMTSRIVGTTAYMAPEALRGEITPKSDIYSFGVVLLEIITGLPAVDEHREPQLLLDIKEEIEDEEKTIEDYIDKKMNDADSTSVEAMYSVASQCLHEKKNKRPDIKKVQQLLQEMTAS
Procedure: (§1) The selectivity of compounds against a panel of 50 human protein kinases was assessed using a non-radiometric assay.

LCK = LCK (Homo sapiens, UniProt P06239); assay: Kinase selectivity profiling, Lymphocyte-specific protein tyrosine kinase; format: biochemical; conditions: read-out: Percentage inhibition of LCK
LCK, sequence (P06239 whole entry): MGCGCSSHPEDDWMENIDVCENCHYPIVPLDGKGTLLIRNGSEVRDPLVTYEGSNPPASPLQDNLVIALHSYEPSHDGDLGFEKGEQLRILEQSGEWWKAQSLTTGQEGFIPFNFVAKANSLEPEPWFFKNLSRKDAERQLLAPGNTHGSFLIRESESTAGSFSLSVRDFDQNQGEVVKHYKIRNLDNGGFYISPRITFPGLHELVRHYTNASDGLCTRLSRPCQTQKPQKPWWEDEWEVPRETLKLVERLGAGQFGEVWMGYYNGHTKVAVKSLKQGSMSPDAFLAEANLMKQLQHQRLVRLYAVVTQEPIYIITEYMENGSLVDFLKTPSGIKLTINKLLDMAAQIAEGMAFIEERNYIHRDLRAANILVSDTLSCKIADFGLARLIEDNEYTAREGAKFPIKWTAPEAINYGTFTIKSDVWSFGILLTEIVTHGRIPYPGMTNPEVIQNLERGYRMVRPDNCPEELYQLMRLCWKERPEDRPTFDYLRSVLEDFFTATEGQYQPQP
Procedure: as §1

JAK3 = biological target: T1, JAK3 (Homo sapiens, UniProt P52333); assay: Kinase selectivity profiling, Janus kinase 3; format: biochemical; conditions: 0.1 µM inhibitor, ATP at Km; for inhibition at 0.1 µM: read-out: Percentage inhibition of JAK3
T1 sequence (P52333 1-1124): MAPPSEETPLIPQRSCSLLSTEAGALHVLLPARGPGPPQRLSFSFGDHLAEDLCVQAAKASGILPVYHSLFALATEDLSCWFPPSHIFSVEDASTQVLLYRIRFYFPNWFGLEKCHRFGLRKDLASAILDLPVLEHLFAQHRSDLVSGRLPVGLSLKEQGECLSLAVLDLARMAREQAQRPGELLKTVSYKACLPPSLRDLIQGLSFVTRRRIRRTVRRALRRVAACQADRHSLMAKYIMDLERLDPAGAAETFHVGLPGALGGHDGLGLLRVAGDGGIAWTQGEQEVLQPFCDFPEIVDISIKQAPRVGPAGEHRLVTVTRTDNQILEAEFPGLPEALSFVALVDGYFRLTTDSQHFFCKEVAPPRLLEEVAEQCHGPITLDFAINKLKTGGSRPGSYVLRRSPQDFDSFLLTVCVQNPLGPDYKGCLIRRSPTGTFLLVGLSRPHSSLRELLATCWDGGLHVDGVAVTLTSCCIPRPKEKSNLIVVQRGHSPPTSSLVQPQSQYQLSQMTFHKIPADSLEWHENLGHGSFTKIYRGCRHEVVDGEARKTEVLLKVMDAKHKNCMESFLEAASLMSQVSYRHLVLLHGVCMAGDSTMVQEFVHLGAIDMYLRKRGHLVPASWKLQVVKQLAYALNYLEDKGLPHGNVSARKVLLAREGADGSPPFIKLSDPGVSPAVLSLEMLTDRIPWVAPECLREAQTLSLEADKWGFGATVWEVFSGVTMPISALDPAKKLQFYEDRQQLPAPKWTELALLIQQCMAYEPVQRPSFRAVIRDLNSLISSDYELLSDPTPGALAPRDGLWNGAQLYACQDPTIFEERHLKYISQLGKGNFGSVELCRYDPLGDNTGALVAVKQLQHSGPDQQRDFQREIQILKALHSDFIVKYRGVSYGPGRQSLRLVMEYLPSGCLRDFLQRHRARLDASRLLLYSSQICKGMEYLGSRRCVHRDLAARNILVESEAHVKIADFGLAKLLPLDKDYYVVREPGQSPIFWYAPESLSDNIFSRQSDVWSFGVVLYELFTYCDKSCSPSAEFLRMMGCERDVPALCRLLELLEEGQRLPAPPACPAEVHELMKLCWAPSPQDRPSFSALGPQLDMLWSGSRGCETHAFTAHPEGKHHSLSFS
Procedure: as §1

FGFR1 = FGFR1 (Homo sapiens, UniProt P11362); assay: Kinase selectivity profiling, Fibroblast growth factor receptor 1; format: biochemical; conditions: read-out: Percentage inhibition of FGFR1
FGFR1, sequence (P11362 22-822): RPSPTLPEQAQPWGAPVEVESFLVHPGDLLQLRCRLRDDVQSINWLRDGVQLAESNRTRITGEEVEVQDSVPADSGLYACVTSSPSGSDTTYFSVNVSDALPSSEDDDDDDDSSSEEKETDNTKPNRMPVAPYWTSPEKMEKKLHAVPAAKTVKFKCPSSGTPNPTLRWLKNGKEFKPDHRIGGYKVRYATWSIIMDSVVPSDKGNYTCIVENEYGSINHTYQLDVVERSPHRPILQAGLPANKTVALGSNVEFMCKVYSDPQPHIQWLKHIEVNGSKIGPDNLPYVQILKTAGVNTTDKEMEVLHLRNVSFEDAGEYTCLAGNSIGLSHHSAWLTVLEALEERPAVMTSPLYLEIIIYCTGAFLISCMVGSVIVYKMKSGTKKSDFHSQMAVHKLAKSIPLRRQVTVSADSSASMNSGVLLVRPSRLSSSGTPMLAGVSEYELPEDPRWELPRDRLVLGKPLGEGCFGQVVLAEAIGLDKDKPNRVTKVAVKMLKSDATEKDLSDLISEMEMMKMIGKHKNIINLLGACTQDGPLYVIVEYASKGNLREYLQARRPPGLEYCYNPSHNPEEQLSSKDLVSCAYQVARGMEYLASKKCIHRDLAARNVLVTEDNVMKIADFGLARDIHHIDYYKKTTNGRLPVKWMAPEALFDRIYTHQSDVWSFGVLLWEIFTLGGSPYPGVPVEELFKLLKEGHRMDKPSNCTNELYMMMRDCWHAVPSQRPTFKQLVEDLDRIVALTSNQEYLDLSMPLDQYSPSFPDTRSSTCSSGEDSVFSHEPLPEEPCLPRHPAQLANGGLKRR
Procedure: as §1

ROCK1 = ROCK1 (Homo sapiens, UniProt Q13464); assay: Kinase selectivity profiling, Rho-associated, coiled-coil containing protein kinase 1; format: biochemical; conditions: read-out: Percentage inhibition of ROCK1
Procedure: as §1

EPHA2 = EPHA2 (Homo sapiens, UniProt P29317); assay: Kinase selectivity profiling, EPH receptor A2; format: biochemical; conditions: read-out: Percentage inhibition of EPHA2
Procedure: as §1

SGK = SGK (Homo sapiens, UniProt O00141); assay: Kinase selectivity profiling, Serum/glucocorticoid regulated kinase; format: biochemical; conditions: read-out: Percentage inhibition of SGK
SGK, sequence (O00141 whole entry): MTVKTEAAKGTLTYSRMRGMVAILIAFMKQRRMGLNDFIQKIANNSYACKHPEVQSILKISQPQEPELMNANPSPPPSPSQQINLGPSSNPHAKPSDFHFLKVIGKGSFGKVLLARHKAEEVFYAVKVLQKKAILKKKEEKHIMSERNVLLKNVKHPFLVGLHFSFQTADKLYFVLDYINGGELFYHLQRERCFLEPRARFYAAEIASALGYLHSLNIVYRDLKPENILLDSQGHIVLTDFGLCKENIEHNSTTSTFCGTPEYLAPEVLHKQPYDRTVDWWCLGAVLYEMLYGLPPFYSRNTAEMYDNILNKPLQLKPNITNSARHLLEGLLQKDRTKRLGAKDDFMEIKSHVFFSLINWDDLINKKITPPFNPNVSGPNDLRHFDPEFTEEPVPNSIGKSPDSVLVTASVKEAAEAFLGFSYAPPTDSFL
Procedure: as §1

SYK = SYK (Homo sapiens, UniProt P43405); assay: Kinase selectivity profiling, Spleen tyrosine kinase; format: biochemical; conditions: read-out: Percentage inhibition of SYK
Procedure: as §1

[1] = system: patient-derived colorectal cancer spheroids #19; assay: ATP production of patient-derived spheroid #19; format: cell-based; conditions: Homo sapiens, 72 h; spheroid #19, 3 days
Procedure: (§2) Cells were seeded at a density of 3,000 cells per well in 96-well plates. Twenty-four hours after seeding, the cells were exposed to serially diluted compounds (0.003, 0.01, 0.03, 0.1, 0.3, 1, 3 and 10 μM) and incubated for 72 h (Fig. 3a). Patient-derived colorectal cancer spheroids were dissociated into single cells with Accutase (Nacalai Tesque) and seeded at a density of 3,000 cells per well into Ultra-Low attachment multiwall 96-well plates (Corning; Fig. 6d). ATP was measured with a CellTiter-Glo Luminescent Cell Viability Assay kit (Promega). Experiments were performed in triplicate and repeated at least two times.

AurA = AurA (Homo sapiens, UniProt O14965); assay: Kinase selectivity profiling, Aurora kinase A; format: biochemical; conditions: read-out: Percentage inhibition of AurA
AurA, sequence (O14965 whole entry): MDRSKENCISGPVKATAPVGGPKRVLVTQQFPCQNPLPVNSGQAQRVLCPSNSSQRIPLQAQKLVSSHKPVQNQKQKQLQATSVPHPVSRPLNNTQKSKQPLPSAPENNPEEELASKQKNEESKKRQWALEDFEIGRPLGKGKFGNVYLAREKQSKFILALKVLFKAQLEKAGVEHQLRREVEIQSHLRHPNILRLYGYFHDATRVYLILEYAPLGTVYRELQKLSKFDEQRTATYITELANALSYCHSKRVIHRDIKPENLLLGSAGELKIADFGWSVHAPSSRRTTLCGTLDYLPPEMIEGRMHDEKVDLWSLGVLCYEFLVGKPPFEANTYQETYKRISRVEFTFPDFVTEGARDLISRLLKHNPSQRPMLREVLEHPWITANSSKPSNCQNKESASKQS
Procedure: as §1

MET = MET (Homo sapiens, UniProt P08581); assay: Kinase selectivity profiling, Hepatocyte growth factor receptor; format: biochemical; conditions: read-out: Percentage inhibition of MET
MET, sequence (P08581 25-1390): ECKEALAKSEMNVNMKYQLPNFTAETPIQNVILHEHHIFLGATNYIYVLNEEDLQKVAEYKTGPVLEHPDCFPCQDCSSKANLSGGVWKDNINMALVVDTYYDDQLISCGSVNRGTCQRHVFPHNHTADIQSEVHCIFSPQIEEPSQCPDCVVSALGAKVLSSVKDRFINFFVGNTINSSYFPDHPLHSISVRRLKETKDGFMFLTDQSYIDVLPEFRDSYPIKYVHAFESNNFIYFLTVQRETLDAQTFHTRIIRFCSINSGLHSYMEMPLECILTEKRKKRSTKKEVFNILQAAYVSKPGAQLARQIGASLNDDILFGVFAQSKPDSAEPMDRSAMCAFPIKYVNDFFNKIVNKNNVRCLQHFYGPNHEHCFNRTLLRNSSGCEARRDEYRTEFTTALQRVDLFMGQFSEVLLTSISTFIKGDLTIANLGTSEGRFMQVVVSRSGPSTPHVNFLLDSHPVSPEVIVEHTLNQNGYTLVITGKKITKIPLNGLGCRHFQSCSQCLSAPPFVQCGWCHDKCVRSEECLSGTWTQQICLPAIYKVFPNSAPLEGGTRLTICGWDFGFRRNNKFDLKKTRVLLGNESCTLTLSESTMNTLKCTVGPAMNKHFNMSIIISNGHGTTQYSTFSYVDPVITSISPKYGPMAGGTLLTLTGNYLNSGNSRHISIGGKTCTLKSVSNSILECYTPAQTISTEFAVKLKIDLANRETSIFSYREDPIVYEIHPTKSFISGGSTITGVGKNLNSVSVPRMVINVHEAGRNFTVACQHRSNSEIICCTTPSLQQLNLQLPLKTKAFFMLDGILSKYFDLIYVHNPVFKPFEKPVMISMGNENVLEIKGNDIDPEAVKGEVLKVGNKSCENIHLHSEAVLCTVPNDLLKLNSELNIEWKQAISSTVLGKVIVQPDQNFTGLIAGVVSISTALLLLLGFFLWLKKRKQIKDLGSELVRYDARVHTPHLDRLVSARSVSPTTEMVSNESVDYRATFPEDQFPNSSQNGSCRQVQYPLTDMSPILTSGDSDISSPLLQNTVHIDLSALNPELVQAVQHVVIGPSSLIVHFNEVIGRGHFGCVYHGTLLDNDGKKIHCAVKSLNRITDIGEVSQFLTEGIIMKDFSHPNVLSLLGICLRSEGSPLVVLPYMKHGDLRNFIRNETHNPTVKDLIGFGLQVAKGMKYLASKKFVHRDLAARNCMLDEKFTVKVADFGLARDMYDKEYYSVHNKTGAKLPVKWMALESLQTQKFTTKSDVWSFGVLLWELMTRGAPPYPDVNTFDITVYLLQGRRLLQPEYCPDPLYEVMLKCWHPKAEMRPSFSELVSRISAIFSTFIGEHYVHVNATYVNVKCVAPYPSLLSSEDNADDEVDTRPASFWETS
Procedure: as §1

EPHA4 = EPHA4 (Homo sapiens, UniProt P54764); assay: Kinase selectivity profiling, EPH receptor A4; format: biochemical; conditions: read-out: Percentage inhibition of EPHA4
Procedure: as §1

Erk2 = Erk2 (Homo sapiens, UniProt P28482); assay: Kinase selectivity profiling, Mitogen-activated protein kinase 1; format: biochemical; conditions: read-out: Percentage inhibition of Erk2
Procedure: as §1

Spheroid #6 = assay: ALDH activity of spheroid #6; format: cell-based, human; conditions: spheroid #6, 1 μM, 48 hr
Procedure: Cells with ALDH activity were detected using an Aldefluor kit (Stem Cell Technologies) in accordance with the manufacturer's instructions. Briefly, cells were incubated in Aldefluor assay buffer containing ALDH substrate for 30 min at 37 °C. As a negative control, an aliquot of each sample was treated with 50 mM diethylaminobenzaldehyde (DEAB) to block ALDH activity. Cells were analysed with a Guava easy Cyte HT flow cytometer. Data analysis was performed using the Guava InCyte software. The analysis was performed in triplicate and repeated at least two times.

CDK2/CycA2 = CDK2/CycA2 (Homo sapiens, UniProt P24941); assay: Kinase selectivity profiling, Cyclin-dependent kinase 2/cyclin A2; format: biochemical; conditions: 0.1 µM inhibitor, ATP at Km
Procedure: as §1

EGFR = EGFR (Homo sapiens, UniProt P00533); assay: Kinase selectivity profiling, Epidermal growth factor receptor; format: biochemical; conditions: read-out: Percentage inhibition of EGFR
Procedure: as §1

[2] = system: patient-derived colorectal cancer spheroids #6; assay: ATP production of patient-derived spheroid #6; format: cell-based; conditions: Homo sapiens, 72 h; spheroid #6, 3 days
Procedure: as §2

FLT3 = FLT3 (Homo sapiens, UniProt P36888); assay: Kinase selectivity profiling, Fms-related tyrosine kinase 3; format: biochemical; conditions: 0.1 µM inhibitor, ATP at Km
FLT3, sequence (P36888 27-993): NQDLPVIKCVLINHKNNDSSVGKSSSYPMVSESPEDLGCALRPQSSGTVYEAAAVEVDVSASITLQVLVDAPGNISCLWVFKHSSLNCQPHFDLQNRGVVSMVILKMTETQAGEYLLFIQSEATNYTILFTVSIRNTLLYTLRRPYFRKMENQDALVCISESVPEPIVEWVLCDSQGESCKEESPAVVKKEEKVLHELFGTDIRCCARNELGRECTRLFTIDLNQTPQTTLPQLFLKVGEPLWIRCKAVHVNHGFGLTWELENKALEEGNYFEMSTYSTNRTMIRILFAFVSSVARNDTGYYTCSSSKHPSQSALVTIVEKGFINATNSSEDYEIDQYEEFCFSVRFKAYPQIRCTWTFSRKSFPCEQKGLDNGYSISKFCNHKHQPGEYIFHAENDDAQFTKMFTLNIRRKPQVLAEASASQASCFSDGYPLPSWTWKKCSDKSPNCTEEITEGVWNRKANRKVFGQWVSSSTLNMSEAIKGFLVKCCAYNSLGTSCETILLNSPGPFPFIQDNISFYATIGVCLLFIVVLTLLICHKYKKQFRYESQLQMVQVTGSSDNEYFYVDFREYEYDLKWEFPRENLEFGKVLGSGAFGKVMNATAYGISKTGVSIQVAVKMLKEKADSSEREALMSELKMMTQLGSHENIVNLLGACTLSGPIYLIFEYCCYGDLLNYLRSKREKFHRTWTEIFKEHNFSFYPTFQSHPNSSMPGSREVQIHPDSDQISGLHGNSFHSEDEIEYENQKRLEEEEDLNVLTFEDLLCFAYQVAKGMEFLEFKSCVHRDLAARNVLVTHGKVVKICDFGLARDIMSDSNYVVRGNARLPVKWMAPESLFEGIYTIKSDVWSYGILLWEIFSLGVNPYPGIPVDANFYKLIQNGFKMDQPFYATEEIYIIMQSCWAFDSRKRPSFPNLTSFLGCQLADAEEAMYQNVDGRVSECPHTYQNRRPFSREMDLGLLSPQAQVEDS
Procedure: as §1

SMILES | inhibition at 0.1 µM (IRAK4) [%] | inhibition at 0.1 µM (LCK) [%] | inhibition at 0.1 µM (JAK3) [%] | inhibition at 0.1 µM (FGFR1) [%] | inhibition at 0.1 µM (ROCK1) [%] | inhibition at 0.1 µM (EPHA2) [%] | inhibition at 0.1 µM (SGK) [%] | inhibition at 0.1 µM (SYK) [%] | pIC50 [1] | inhibition at 0.1 µM (AurA) [%] | inhibition at 0.1 µM (MET) [%] | inhibition at 0.1 µM (EPHA4) [%] | inhibition at 0.1 µM (Erk2) [%] | percentage of cells with ALDH activity, - DEAB (Spheroid #6) [%] | percentage of cells with ALDH activity, + DEAB (Spheroid #6) [%] | inhibition at 0.1 µM (EGFR) [%] | pIC50 [2] | further results
O[C@H]1CC[C@@H](Oc2cccc3cnc(Nc4ccc5nc[nH]c5c4)nc23)CC1 [NCB-0846, cis-4-(2-(3H-benzo[d]imidazol-5-ylamino)quinazolin-8-yloxy)cyclohexanol] | 14.7 | 23.6 | > 80 | 32.5 | 20.1 | 13.6 | 14.7 | 7.6 | 6.21 | 41.4 | 42.1 | 5.5 | 0.7 | 19.43 | 1.01 | 4.8 | 6.17 | Percentage inhibition of JAK3 (JAK3; 0.1 µM): 96.3%; Percentage inhibition of CDK2/CycA2 (CDK2/CycA2; 0.1 µM): > 80% and 101.1%; Percentage inhibition of FLT3 (FLT3; 0.1 µM): > 80% and 104.1%
O[C@H]1CC[C@H](Oc2cccc3cnc(Nc4ccc5nc[nH]c5c4)nc23)CC1 [NCB-0970] | 6.3 | 6.8 | 85.4 | 14.4 | 9.7 | 8.7 | 6.6 | 14.2 | < 5.52 | 36.5 | 16.1 | 2.3 | -2.1 | 44.32 | 2.30 | -16.8 | < 5.52 | inhibition at 0.1 µM (CDK2/CycA2; read-out: Percentage inhibition of CDK2/CycA2): 93%; inhibition at 0.1 µM (FLT3; read-out: Percentage inhibition of FLT3): 102%
